{"source": "patent US6348211B1", "about": "“Compositions and methods for treatment of attention deficit disorder and attention deficit/hyperactivity disorder with methylphenidate” (Noven Pharmaceuticals, Inc., priority 1997, dated 2002)", "key": {"[1]": {"assay": "Degradation of methylphenidate in topical composition in the presence of acid functional groups", "format": "physicochemical", "conditions": "with every 1% increase by weight in acid functional component of the topical composition", "excerpt": "It has been discovered that methylphenidate, and in particular the base form, can be unstable and undergoes degradation in the presence of acid functional groups which are contained in adhesives, enhancers, excipients and other components of the topical composition. The major degradant/metabolite appears to be ritalinic acid, which increases about ten fold with every 1% increase by weight in such acid functional component. Such degradation can greatly reduce the amount of the active enantiomer during storage of the topical composition, thus reducing the amount of active methylphenidate available for drug delivery."}, "[2]": {"conditions": "among the four enantiomers of methylphenidate; cited from earlier work"}}, "data": [{"molecule": "COC(=O)C(c1ccccc1)C1CCCCN1", "note": "(centres unmarked) [Methylphenidate]", "values": [{"measurement": "increase of major degradant ritalinic acid", "setting": "[1]", "value": "about ten fold"}]}, {"molecule": "COC(=O)[C@H](c1ccccc1)[C@H]1CCCCN1", "note": "[d-threo-methylphenidate]", "values": [{"measurement": "activity of enantiomer", "setting": "[2]", "value": "significantly active"}]}]}
